Results published in paper PMC4074034, “Gefitinib and Luteolin Cause Growth Arrest of Human Prostate Cancer PC-3 Cells via Inhibition of Cyclin G-Associated Kinase and Induction of miR-630” (PLoS ONE, 2014).

Target: T1, GAK (cyclin G-associated kinase), GST-tagged human GAK (Homo sapiens, UniProt O14976)
T1 sequence (O14976 1-1311): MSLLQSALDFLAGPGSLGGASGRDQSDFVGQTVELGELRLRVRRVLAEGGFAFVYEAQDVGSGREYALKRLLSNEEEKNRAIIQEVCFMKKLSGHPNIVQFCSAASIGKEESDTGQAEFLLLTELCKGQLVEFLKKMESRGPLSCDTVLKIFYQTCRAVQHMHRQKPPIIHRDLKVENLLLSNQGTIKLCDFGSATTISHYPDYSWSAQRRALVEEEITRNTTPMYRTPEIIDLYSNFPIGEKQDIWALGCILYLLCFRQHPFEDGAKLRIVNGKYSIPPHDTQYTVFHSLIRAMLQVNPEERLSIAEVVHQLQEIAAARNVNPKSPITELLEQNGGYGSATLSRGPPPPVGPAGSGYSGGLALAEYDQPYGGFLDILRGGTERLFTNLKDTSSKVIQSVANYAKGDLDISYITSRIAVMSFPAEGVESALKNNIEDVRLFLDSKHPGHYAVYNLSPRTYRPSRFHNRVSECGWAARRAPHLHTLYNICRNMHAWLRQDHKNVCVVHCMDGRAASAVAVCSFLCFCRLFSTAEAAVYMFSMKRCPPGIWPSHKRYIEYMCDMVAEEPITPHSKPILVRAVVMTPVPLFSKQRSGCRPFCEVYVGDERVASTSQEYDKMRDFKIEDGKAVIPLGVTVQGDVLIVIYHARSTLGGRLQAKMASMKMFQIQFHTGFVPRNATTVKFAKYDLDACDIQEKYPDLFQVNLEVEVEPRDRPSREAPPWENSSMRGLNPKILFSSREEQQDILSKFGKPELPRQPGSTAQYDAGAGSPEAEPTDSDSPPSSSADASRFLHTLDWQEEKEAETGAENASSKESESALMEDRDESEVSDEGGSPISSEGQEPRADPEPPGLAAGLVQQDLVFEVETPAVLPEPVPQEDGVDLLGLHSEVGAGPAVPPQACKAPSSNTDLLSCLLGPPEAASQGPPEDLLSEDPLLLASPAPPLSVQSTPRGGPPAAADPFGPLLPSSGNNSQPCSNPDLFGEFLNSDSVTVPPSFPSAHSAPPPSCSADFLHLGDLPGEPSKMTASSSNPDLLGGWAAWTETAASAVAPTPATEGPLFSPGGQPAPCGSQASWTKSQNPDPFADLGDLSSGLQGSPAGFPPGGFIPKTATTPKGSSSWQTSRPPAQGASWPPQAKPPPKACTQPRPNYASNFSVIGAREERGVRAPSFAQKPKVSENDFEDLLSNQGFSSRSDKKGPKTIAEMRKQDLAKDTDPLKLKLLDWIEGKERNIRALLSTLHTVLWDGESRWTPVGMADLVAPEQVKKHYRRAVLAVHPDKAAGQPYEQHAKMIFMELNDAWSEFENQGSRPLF
Assay: […]-ATP in vitro kinase assay, SDS-PAGE autoradiography
Format: biochemical
Conditions: substrate mouse PP2A B'γ fragment, also autophosphorylation, 5 µM ATP, 10 mM MgCl2, 5 mM MnCl2, pH 7.5, 30°C, 30 min

| SMILES | intensity ratio of phosphorylated PP2A B'γ and GAK (10 µM compound) | intensity ratio of phosphorylated PP2A B'γ and GAK |
| --- | --- | --- |
| Oc1ccc(/C=C/c2cc(O)cc(O)c2)cc1 [resveratrol] | the same concentration of resveratrol had only a slight inhibitory effect |  |
| COc1cc2ncnc(Nc3ccc(F)c(Cl)c3)c2cc1OCCCN1CCOCC1 [gefitinib] |  | Gefitinib inhibited GAK autophosphorylation and GAK-mediated phosphorylation of PP2A B′γ in a dose-dependent manner |
| C#Cc1cccc(Nc2ncnc3cc(OCCOC)c(OCCOC)cc23)c1 [erlotinib] |  | Both of these compounds inhibited GAK activity similarly |
| C[S+]([O-])c1ccc(-c2nc(-c3ccc(F)cc3)c(-c3ccncc3)[nH]2)cc1 (stereo not shown) [SB203580] |  | Both of these compounds inhibited GAK activity similarly |
